Assay results reported in US10688188B2, “Polytetrafluoroethylene co-polymer emulsions” (W. L. Gore & Associates, Inc., priority 2012, dated 2020).

Assay: Solubility statements
Type: physicochemical

Row | SMILES | solubility in acetone (DSP in acetone) | solubility in Fluorinert (Fluorinert FC77) | solubility in acetone (Solution V) (1.0 g in 100 g Solution V)
1 | C[C@@H]1C[C@H]2[C@@H]3CCC4=CC(=O)C=C[C@]4(C)[C@@]3(F)[C@@H](O)C[C@]2(C)[C@@]1(O)C(=O)COP(=O)(O)O [DSP, dexamethasone sodium phosphate] | nonsolvent | nonsolvent | 
2 | C[C@@H]1C[C@H]2[C@@H]3CCC4=CC(=O)C=C[C@]4(C)[C@@]3(F)[C@@H](O)C[C@]2(C)[C@@]1(O)C(=O)CO [dexamethasone] |  |  | dissolve completely
